# Measurements: US20240342244A1, “Isthmin Protein Therapeutics for the Treatment of Non-Alcoholic Fatty Liver Disease” (The Board of Trustees of the Leland Stanford Junior …, priority 2021, published 2024)
# Tests used:
# [1] = tested on: NAFLD mice; settings: daily injections at 30 mg/kg; after 14 days; cited from earlier work
# [2] = tested on: human SGBS adipocytes; assay: 2-deoxy-3H-glucose uptake in human SGBS adipocytes; assay type: cell-based; settings: doses ranging from 10 nM to 200 nM
# Description: (§1) Mouse and human pre-adipocytes culture and differentiation. Inguinal fat pads from 4-8 week old C57BL/6J male and female mice were dissected and mechanically digested for 10 min using spring scissors. Digested tissues were incubated in WAT isolation buffer (10 ml PBS, 2.4 U/ml dispase II (#04942078001, Roche), 10 mg/ml collagenase D (#11088858001, Roche) at 37° C. for 45 min. 20 mL growth media was added and the tissue suspension was filtered through a 100-μm cell strainer and centrifuged at 600×g for 5 min. The cell pellets were resuspended in 20 mL growth media, filtered through a 40-μm cell strainer, centrifuged at 600×g for 5 min, resuspended in 10 mL growth media, and plated in 10-cm collagen-coated dishes. The cells were cultured in growth media (DMEM/F-12 Glutamax, Thermo Fisher Scientific #10565018) supplemented with 10% fetal bovine serum. Two days post-confluency, differentiation was induced with growth media containing 1 μM rosiglitazone, 0.5 mM isobutylmethylxanthine, 1 μM dexamethasone, 5 μg/mL insulin. After two days, cells were re-fed with growth media containing 1 μM rosiglitazone and 5 μg/mL insulin. Cells were fully differentiated after 6-8 days. For ISM1 knockdown or overexpression in primary adipocytes using adenovirus, 500 μL crude virus was mixed with 500 μL fresh growth media containing 1 μM rosiglitazone and 5 μg/mL insulin was added to each well at day 2 of differentiation. At day 4, virus-containing media was removed and 500 μL fresh growth media without stimulators was added to each well. SGBS cells were differentiated as described previously (Fischer-Posovszky et al., 2008; Wabitsch et al., 2001). Briefly, cells were cultured in growth media DMEM/F-12 Glutamax, supplemented with 10% fetal bovine serum, 33 uM biotin, and 17 uM pantothenate. Two days post confluency, differentiation was induced with serum-free DMEM/F12 media containing 33 uM biotin, 17 uM pantothenate, 0.01 mg/ml transferrin, 20 nM insulin, 100 nM cortisol, 0.2 nM triiodothyronine, 25 nM dexamethasone, 0.25 mM isobutyl methylxanthine, and 2 μM rosiglitazone. After four days, cells were re-fed with growth media containing 0.01 mg/ml transferrin 20 nM insulin, 100 nM cortisol, 0.2 nM triiodothyronine. Cells were fully differentiated after day 8-10.
# (§2) Glucose uptake. Glucose uptake was performed as previously described (You et al., 2017). Briefly, 2-Deoxy-d-[2,6-3H]-glucose was purchased from PerkinElmer NEN radiochemicals. Fully differentiated adipocytes were washed with KRH buffer and starved in 0.5% BSA in KRH buffer for 4 h. Indicated concentrations of insulin or ISM1 were added at indicated time points. Cells were treated with a mixture of 500 μM 2-deoxy-D-glucose and 1.71 μCimL^−1 2-Deoxy-D-[1,2-3H (N)]-glucose for another 10 min followed by three washes using ice cold KRH buffer containing 200 mM glucose. The passive glucose uptake in the presence of 50 uM CytoB was less than 12% of the total glucose uptake. Cells were solubilized in 1% SDS and radioactivity was measured by liquid scintillation counting.
# [3] = tested on: primary mouse adipocytes; assay: 2-deoxy-3H-glucose uptake in primary mouse adipocytes; assay type: cell-based; settings: 1 h
# Description: as §1, §2
# [4] = tested on: differentiated 3T3-L1 adipocytes; assay: 2-deoxy-3H-glucose uptake in differentiated 3T3-L1 adipocytes; assay type: cell-based; settings: 1 h
# Description: as §2
# [5] = tested on: GLUT4; assay: GLUT4 translocation to the plasma membrane in primary adipocytes (immunostaining, fractionation); assay type: cell-based, mouse; settings: 100 nM
# Description: Biochemical analyses. Plasma insulin levels were measured using the Ultra-Sensitive Mouse Insulin ELISA kit (Crystal Chem Inc #90080). Plasma triglycerides were measured with Infinity triglyceride measurement kit (Thermo #TR22421) and tissue triglycerides were measured with a Triglyceride Colorimetric Assay Kit (Cayman #10010303). Lipolysis was measured in day 5 differentiated adipocytes after 4 hours of protein treatment using a glycerol release assay according to the protocol provided by the manufacturer (Abcam #ab133130). Plasma membrane protein extractions were performed according to the manufacturer's protocol (Abcam #ab65400).
# Immunocytochemistry. Primary mouse preadipocytes were seeded onto collagen-coated 22 mm×22 mm coverslips and differentiated using the method above. On day 8, differentiated adipocytes were washed with PBS and starved in 0.5% BSA in KRH buffer (50 mM HEPES, 136 mM NaCl, 1.25 mM MgSO4, 1.25 mM CaCl2, 4.7 mM KCl, pH 7.4) for 3.5 h. Cells were treated with insulin or ISM1 for 30 min, followed by three washes with cold PBS. Cells were fixed with 4% PFA in PBS for 15 min at room temperature. After blocking with 2% BSA, 5% goat serum, 0.2% Triton-X in PBS for 1 hr, cells were incubated with diluted primary antibody at 4° C. overnight. The next day, cells were washed and incubated with secondary antibody on ice for 1 hr. Cells were imaged using confocal microscope (Leica TCS SP8). Hoechst (#33342, thermo fisher) was used as counterstain.
# [6] = tested on: pAKT^S473; assay: pAKT S473 signaling in 3T3-F442A cells (phosphokinase array, western blot); assay type: cell-based; settings: increasing doses; 5 min
# Description: (§3) Western blots and molecular analyses. For western blotting, homogenized tissues or whole-cell lysates, samples were lysed in RIPA buffer containing protease inhibitor cocktail (Roche) and phosphatase inhibitor cocktail (Roche). Cell lysates were centrifuged at 14,000×g for 15 min and supernatants were prepared in 4×LDS Sample Buffer (Invitrogen) and separated by SDS-PAGE and transferred to Immobilon 0.45 μm membranes (Millipore). For Western blotting of plasma samples, 1 μl of plasma was prepared in 2× sample buffer (Invitrogen) with reducing agent, boiled, and analyzed using Western blot against indicated antibody. Protein kinase array (R&D systems ARY003B) was performed according to the manufacturers' description. All antibodies used in this paper are described in STAR methods.
# [7] = tested on: pAKT^T308, S6^S235/S236, PRAS40^Thr246, ERK1/2, PKA, PDK1, GSK3β; assay: Time-course western blot of intracellular signaling pathways in 3T3-F442A cells; assay type: cell-based; settings: 100 nM; time course
# Description: as §3
# [8] = tested on: IGF-I-Receptor β Tyr1135/1136 or Insulin receptor Tyr1150/1151; assay: Western blot of phosphorylated insulin and IGF receptors in 3T3-F442A cells; assay type: cell-based; settings: 100 nM; 2 minutes
# Description: as §3
# [9] = tested on: pTyr; assay: Western blot of pTyr levels; assay type: cell-based; settings: 100 nM; 2 minutes
# Description: as §3
# [10] = tested on: AML12 hepatocytes; assay: Lipogenesis assay (3H-acetate incorporation into lipids) in AML12 hepatocytes; assay type: cell-based, mouse; settings: 50 nM insulin; 24 h
# Description: Lipogenesis Assay. Primary hepatocytes or AML12 hepatocytes were washed twice with warm PBS and starved in serum-free DMEM overnight. Indicated concentrations of insulin with or without ISM1 were added at the same time. After 24 h, a mixture of 10 μM cold acetate and 2 μCi [3H]-Acetate (#NET003H005MC, PerkinElmer) was added to each well and cells were incubated for another 4 hr. Cells were washed with PBS twice and lysed using 0.1 N hydrogen chloride. Lipids were extracted by 2:1 chloroform-methanol (v/v). After centrifugation at 3000×g for 10 min, the lower phase was transferred to scintillation vials and radioactivity was measured by liquid scintillation counting.
# [11] = tested on: SREBP1c, FAS, ACC; assay: Lipogenic protein and gene expression in AML12 hepatocytes; assay type: cell-based, mouse; settings: 50 nM insulin, with or without ISM1; 24 h
# Description: (§4) Gene expression analysis. Total RNA from cultured cells or tissues was isolated using TRIzol (Thermo Fischer Scientific) and Rneasy mini kits (QIAGEN). RNA was reverse transcribed using the ABI high capacity cDNA synthesis kit. For qRT-PCR analysis, cDNA, primers and SYBR-green fluorescent dye (ABI) were used. Relative mRNA expression was determined by normalization with Cyclophilin levels using the ΔΔCt method.
# as §3
# [12] = tested on: srebp1c; assay: Lipogenic gene and SREBP-1c protein expression in primary adipocytes; assay type: cell-based, mouse; settings: primary adipocytes
# Description: as §4, §3
Compound,hepatic steatosis (previously shown) [1],concentration from which glucose uptake is increased [2] [nM],glucose uptake induction compared with ISM1 [3],induction of glucose uptake [4] [fold],GLUT4 in plasma membrane fraction (biochemical fractionation) ([5]; 4 h),"GLUT4 at cell surface (immunostaining, confocal microscopy) ([5]; compared with control cells)",dose at which dose-dependent increase in pAKT^S473 phosphorylation starts [6] [nM],pAKT^T308 phosphorylation [7],IGF-R/IR phosphorylation [8],tyrosine phosphorylation of proteins [9],de novo lipogenesis [10],"SREBP1c cleavage, FAS and ACC protein expression [11]",srebp1c expression under basal conditions [12]
CC(C)c1onc(-c2c(Cl)cccc2Cl)c1COc1ccc(/C=C/c2cccc(C(=O)O)c2)c(Cl)c1 [GW4064],significantly reduce hepatic steatosis,–,–,–,–,–,–,–,–,–,–,–,–
insulin [reference compound],–,20,higher glucose induction than ISM1,~40,translocation of GLUT4 to the plasma membrane,higher levels of GLUT4 at cell surface,10,phosphorylation at pAKT^T308 at all time points,induced IGF-R/IR phosphorylation,induces phosphorylation of its receptors at larger molecular weights,significant induction of lipogenesis,"increased expression of pre-SREBP1c as well as the cleaved SREBP1, and increased protein expression of FAS and ACC",induces srebp1c expression
